Drawing on US9302996B2, “Continuous arycyclic compound” (MITSUBISHI TANABE PHARMA CORPORATION, priority 2010, dated 2016), this text covers inhibition in vivo for 1 molecule.

What all share (format): in vivo
The subject of one experiment is C57BL/6J mice. Nature of the experiment: Antifeeding activity (high fat diet intake up to 4 hours). Particulars: Mus musculus, male C57BL/6J mice, 5 mg/kg oral, food ingested up to 4 hours, read-out: Antifeeding rate (5 mg/kg).
The next experiment relates to KK-Ay mice. Nature of the experiment: Weight gain-inhibiting action, hypoglycemic effect, insulin in blood plasma lowering action in KK-Ay mice. Particulars: Mus musculus, 336 h, male KK-Ay mice, high fat diet, 30 mg/kg/day oral, 2 weeks.
In a further experiment the test system is ICR mice. The experiment can be described thus: Triglyceride (TG) in blood plasma increase-inhibiting action due to lipid administration. The note with it: Mus musculus; male ICR mice, 5 mg/kg oral, lipid (Intralipos 20%) after 30 minutes, plasma TG 2 hours after lipid; read-out: Inhibiting rate of TG-increase in blood plasma (5 mg/kg). The gist of the method:
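Male ICR mice (6–9 weeks), fasted overnight, dosed orally with compound in 0.2% CMC; oral lipid emulsion (10 mL/kg) 30 min later. Plasma TG from tail vein before and 2 h after lipid load; rise in TG expressed as percent inhibition versus vehicle group.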

Molecules are shown by their SMILES. Where two headings read alike, the source gives them in different places.

For the molecule `CC(C)(COc1cnc(-c2ccc(-c3ncc(C(F)(F)F)[nH]3)nc2)cn1)C(=O)O` [Example 92], the inhibition in vivo at 5 mg/kg was found to be 66% in the experiment on C57BL/6J mice and 74% with ICR mice. Moreover, the inhibition in vivo at 30 mg/kg in the experiment with KK-Ay mice (read-out: Hypoglycemic action (30 mg/kg/day)) worked out at 63%; in the experiment on KK-Ay mice (read-out: Insulin in blood plasma-lowering action (30 mg/kg/day)), 58%; in the experiment with KK-Ay mice (read-out: Weight gain-inhibiting action (30 mg/kg/day)) it was 60%.
